According to patent publication US20070128217A1 (priority 2003, published 2007):

Key:
[1] = test system: antibodies in sera from SARS patients (sera 1a, 1b, 2, 6, 37, 62, London, SARS-yellow, SARS-green); format: binding, human; set-up: Binding of serum 6 to linear peptides of protein X1 of SARS-CoV Urbani / Binding of serum 37 to linear peptides of protein X1 of SARS-CoV Urbani / Binding of serum 6 to looped/cyclic peptide (PEPSCAN-ELISA) / Binding of serum 37 to looped/cyclic peptide (PEPSCAN-ELISA) / Binding of serum 37 to looped/cyclic peptides of protein X1 of SARS-CoV Urbani / Binding of serum 6 to linear peptides of protein X2 / Binding of serum 37 to linear peptides of protein X2 / Binding of serum 37 to looped/cyclic peptides of protein X2 of SARS-CoV Urbani / Binding of serum 6 to linear peptides of protein M of SARS-CoV Urbani / Binding of serum 37 to linear peptides of protein M of SARS-CoV Urbani / Binding of serum 6 to looped/cyclic peptides of protein M of SARS-CoV Urbani / Binding of serum 37 to looped/cyclic peptides of protein M of SARS-CoV Urbani / Binding of serum 6 to linear peptides of protein X3 of SARS-CoV Urbani / Binding of serum 37 to linear peptides of protein X3 of SARS-CoV Urbani / Binding of serum 37 to looped/cyclic peptides of protein X3 of SARS-CoV Urbani / Binding of serum 6 to linear peptides of protein X4 of SARS-CoV Urbani / Binding of serum 37 to linear peptides of protein X4 of SARS-CoV Urbani / Binding of serum 37 to looped/cyclic peptides of protein X4 of SARS-CoV Urbani / Binding of serum 6 to linear peptides of protein X5 of SARS-CoV Urbani / Binding of serum 37 to linear peptides of protein X5 of SARS-CoV Urbani / Binding of serum 37 to looped/cyclic peptides of protein X5 of SARS-CoV Urbani / Binding of serum 6 to linear peptides of protein N of SARS-CoV Urbani / Binding of serum 37 to linear peptides of protein N of SARS-CoV Urbani / Binding of serum 6 to linear peptide (PEPSCAN-ELISA) / Binding of serum 1a to looped/cyclic peptides of protein N of SARS-CoV Urbani / Binding of serum 1b to looped/cyclic peptides of protein N of SARS-CoV Urbani / Binding of serum 2 to looped/cyclic peptides of protein N of SARS-CoV Urbani / Binding of serum 6 to looped/cyclic peptides of protein N of SARS-CoV Urbani / Binding of serum 37 to looped/cyclic peptides of protein N of SARS-CoV Urbani / Binding of serum 62 to looped/cyclic peptides of protein N of SARS-CoV Urbani / Binding of serum London to looped/cyclic peptides of protein N of SARS-CoV Urbani / Binding of serum SARS-green to looped/cyclic peptides of protein N of SARS-CoV Urbani: unit not given here
[2] = test system: rabbit serum obtained by immunizing a rabbit with the SARS-CoV strain Frankfurt 1; format: binding; set-up: Binding of a rabbit serum to linear peptides / Binding of a rabbit serum to looped peptides / Rabbit serum linear peptides / Rabbit serum looped peptides / Binding of a rabbit serum to linear peptides of protein N of SARS-CoV Urbani (Rabbit serum linear peptides) / Binding of a rabbit serum to looped/cyclic peptides of protein N of SARS-CoV Urbani (Rabbit serum looped peptides): unit not given here
[3] = test system: control sera (pooled serum of ten healthy LUMC hospital workers; commercial negative donor pooled serum from the Dutch bloodbank); format: binding, human; set-up: Binding of Control serum LUMC to linear peptides / Binding of Control serum Blood-bank to linear peptides / Binding of Control serum LUMC to looped peptides / Binding of Control Serum Blood-Bank to Looped peptides / Binding of Control serum LUMC to linear peptides of the protein M of SARS-CoV Urbani / Binding of Control serum Blood-bank to linear peptides of the protein M of SARS-CoV Urbani / Binding of Control serum LUMC to looped peptides of the protein M of SARS-CoV Urbani / Binding of Control Serum Blood-Bank to Looped peptides of the protein M of SARS-CoV Urbani: unit not given here

## FACADGTRHTYQLRA
[1]
  Binding of serum 1a to linear peptides of protein X4 of SARS-CoV Urbani: 0.7
  Binding of serum 1a to looped/cyclic peptides of protein X4 of SARS-CoV Urbani: 0.7
  Binding of serum 1b to linear peptides of protein X4 of SARS-CoV Urbani: 0.4
  Binding of serum 1b to looped/cyclic peptides of protein X4 of SARS-CoV Urbani: 0.6
  Binding of serum 2 to linear peptides of protein X4 of SARS-CoV Urbani: 0.4
  Binding of serum 2 to looped/cyclic peptides of protein X4 of SARS-CoV Urbani: 0.6
  Binding of serum 6 to linear peptides of protein X4 of SARS-CoV Urbani: 0.4
  Binding of serum 6 to looped/cyclic peptides of protein X4 of SARS-CoV Urbani: 0.3
  Binding of serum 37 to linear peptides of protein X4 of SARS-CoV Urbani: 0.6
  Binding of serum 37 to looped/cyclic peptides of protein X4 of SARS-CoV Urbani: 0.7
  Binding of serum 62 to linear peptides of protein X4 of SARS-CoV Urbani: 0.7
  Binding of serum 62 to looped/cyclic peptides of protein X4 of SARS-CoV Urbani: 0.7
  Binding of serum London to linear peptides of protein X4 of SARS-CoV Urbani: 0.8
  Binding of serum London to looped/cyclic peptides of protein X4 of SARS-CoV Urbani: 0.4
  Binding of serum SARS-green to linear peptides of protein X4 of SARS-CoV Urbani: 0.5
  Binding of serum SARS-green to looped/cyclic peptides of protein X4 of SARS-CoV Urbani: 0.8
  Binding of serum SARS-yellow to linear peptides of protein X4 of SARS-CoV Urbani: 0.2
  Binding of serum SARS-yellow to looped/cyclic peptides of protein X4 of SARS-CoV Urbani: 0.3
[2]
  Recognition of the peptide by the rabbit serum: recognized
[3]
  Binding of Control Serum Blood-Bank to Looped peptides: 0.3
  Binding of Control serum Blood-bank to linear peptides: 0.7
  Binding of Control serum LUMC to linear peptides: 0.4
  Binding of Control serum LUMC to looped peptides: 0.4

## SRRRLLACLCKHKKV
[1]
  Binding of serum 1a to looped/cyclic peptides of protein X2 of SARS-CoV Urbani: 0.2
  Binding of serum 1b to looped/cyclic peptides of protein X2 of SARS-CoV Urbani: 0.2
  Binding of serum 2 to looped/cyclic peptides of protein X2 of SARS-CoV Urbani: 0.1
  Binding of serum 6 to looped/cyclic peptides of protein X2 of SARS-CoV Urbani: 0.0
  Binding of serum 37 to looped/cyclic peptides of protein X2 of SARS-CoV Urbani: 0.2
  Binding of serum 62 to looped/cyclic peptides of protein X2 of SARS-CoV Urbani: 0.3
  Binding of serum London to looped/cyclic peptides of protein X2 of SARS-CoV Urbani: 0.1
  Binding of serum SARS-green to looped/cyclic peptides of protein X2 of SARS-CoV Urbani: 0.2
  Binding of serum SARS-yellow to looped/cyclic peptides of protein X2 of SARS-CoV Urbani: 0.2
  Recognition of the peptide by sera of SARS-CoV infected individuals, and form (linear, looped/cyclic) in which it is recognized: recognized in linear form
[2]
  Binding of a rabbit serum to linear peptides: 0.3
  Binding of a rabbit serum to looped peptides: 0.4
[3]
  Binding of Control Serum Blood-Bank to Looped peptides: 0.2
  Binding of Control serum Blood-bank to linear peptides: 0.9
  Binding of Control serum LUMC to linear peptides: 0.6
  Binding of Control serum LUMC to looped peptides: 0.2

## WPVTLACFVLAAVYR
[1]
  Binding of serum 1a to linear peptides of protein M of SARS-CoV Urbani: 0.7
  Binding of serum 1a to looped/cyclic peptides of protein M of SARS-CoV Urbani: 0.8
  Binding of serum 1b to linear peptides of protein M of SARS-CoV Urbani: 0.5
  Binding of serum 1b to looped/cyclic peptides of protein M of SARS-CoV Urbani: 0.6
  Binding of serum 2 to linear peptides of protein M of SARS-CoV Urbani: 0.4
  Binding of serum 2 to looped/cyclic peptides of protein M of SARS-CoV Urbani: 0.8
  Binding of serum 6 to linear peptides of protein M of SARS-CoV Urbani: 0.3
  Binding of serum 6 to looped/cyclic peptides of protein M of SARS-CoV Urbani: 1.1
  Binding of serum 37 to linear peptides of protein M of SARS-CoV Urbani: 0.4
  Binding of serum 37 to looped/cyclic peptides of protein M of SARS-CoV Urbani: 0.8
  Binding of serum 62 to linear peptides of protein M of SARS-CoV Urbani: 0.4
  Binding of serum 62 to looped/cyclic peptides of protein M of SARS-CoV Urbani: 1.1
  Binding of serum London to linear peptides of protein M of SARS-CoV Urbani: 0.3
  Binding of serum London to looped/cyclic peptides of protein M of SARS-CoV Urbani: 0.4
  Binding of serum SARS-green to linear peptides of protein M of SARS-CoV Urbani: 0.4
  Binding of serum SARS-green to looped/cyclic peptides of protein M of SARS-CoV Urbani: 0.2
  Binding of serum SARS-yellow to linear peptides of protein M of SARS-CoV Urbani: 0.2
  Binding of serum SARS-yellow to looped/cyclic peptides of protein M of SARS-CoV Urbani: 0.4
[2]
  Rabbit serum linear peptides: 0.2
  Rabbit serum looped peptides: 0.4
[3]
  Binding of Control Serum Blood-Bank to Looped peptides of the protein M of SARS-CoV Urbani: 0.8
  Binding of Control serum Blood-bank to linear peptides of the protein M of SARS-CoV Urbani: 0.7
  Binding of Control serum LUMC to linear peptides of the protein M of SARS-CoV Urbani: 0.5
  Binding of Control serum LUMC to looped peptides of the protein M of SARS-CoV Urbani: 1.2

## TDTGIENATFFIFNK
[1]
  Binding of serum 1a to linear peptides of protein X1 of SARS-CoV Urbani: 0.7
  Binding of serum 1a to looped/cyclic peptides of protein X1 of SARS-CoV Urbani: 0.5
  Binding of serum 1b to linear peptides of protein X1 of SARS-CoV Urbani: 0.4
  Binding of serum 1b to looped/cyclic peptides of protein X1 of SARS-CoV Urbani: 0.5
  Binding of serum 2 to linear peptides of protein X1 of SARS-CoV Urbani: 0.5
  Binding of serum 2 to looped/cyclic peptides of protein X1 of SARS-CoV Urbani: 0.5
  Binding of serum 6 to linear peptides of protein X1 of SARS-CoV Urbani: 0.7
  Binding of serum 6 to looped/cyclic peptides of protein X1 of SARS-CoV Urbani: 0.5
  Binding of serum 37 to linear peptides of protein X1 of SARS-CoV Urbani: 0.6
  Binding of serum 37 to looped/cyclic peptides of protein X1 of SARS-CoV Urbani: 0.7
  Binding of serum 62 to linear peptides of protein X1 of SARS-CoV Urbani: 0.5
  Binding of serum 62 to looped/cyclic peptides of protein X1 of SARS-CoV Urbani: 0.7
  Binding of serum London to linear peptides of protein X1 of SARS-CoV Urbani: 0.3
  Binding of serum London to looped/cyclic peptides of protein X1 of SARS-CoV Urbani: 0.3
  Binding of serum SARS-green to linear peptides of protein X1 of SARS-CoV Urbani: 0.5
  Binding of serum SARS-green to looped/cyclic peptides of protein X1 of SARS-CoV Urbani: 0.4
  Binding of serum SARS-yellow to linear peptides of protein X1 of SARS-CoV Urbani: 0.0
  Binding of serum SARS-yellow to looped/cyclic peptides of protein X1 of SARS-CoV Urbani: 0.5
[2]
  Binding of a rabbit serum to linear peptides: 0.1
  Binding of a rabbit serum to looped peptides: 0.6
[3]
  Binding of Control Serum Blood-Bank to Looped peptides: 0.8
  Binding of Control serum Blood-bank to linear peptides: 0.6
  Binding of Control serum LUMC to linear peptides: 0.4
  Binding of Control serum LUMC to looped peptides: 0.6

## MLLQFAYSNRNRFLY
[1]
  Binding of serum 1a to linear peptides of protein M of SARS-CoV Urbani: 0.6
  Binding of serum 1a to looped/cyclic peptides of protein M of SARS-CoV Urbani: 0.8
  Binding of serum 1b to linear peptides of protein M of SARS-CoV Urbani: 0.4
  Binding of serum 1b to looped/cyclic peptides of protein M of SARS-CoV Urbani: 0.2
  Binding of serum 2 to linear peptides of protein M of SARS-CoV Urbani: 0.5
  Binding of serum 2 to looped/cyclic peptides of protein M of SARS-CoV Urbani: 0.6
  Binding of serum 6 to linear peptides of protein M of SARS-CoV Urbani: 0.2
  Binding of serum 6 to looped/cyclic peptides of protein M of SARS-CoV Urbani: 1.3
  Binding of serum 37 to linear peptides of protein M of SARS-CoV Urbani: 0.8
  Binding of serum 37 to looped/cyclic peptides of protein M of SARS-CoV Urbani: 0.6
  Binding of serum 62 to linear peptides of protein M of SARS-CoV Urbani: 0.7
  Binding of serum 62 to looped/cyclic peptides of protein M of SARS-CoV Urbani: 0.5
  Binding of serum London to linear peptides of protein M of SARS-CoV Urbani: 0.2
  Binding of serum London to looped/cyclic peptides of protein M of SARS-CoV Urbani: 0.3
  Binding of serum SARS-green to linear peptides of protein M of SARS-CoV Urbani: 0.2
  Binding of serum SARS-green to looped/cyclic peptides of protein M of SARS-CoV Urbani: 0.2
  Binding of serum SARS-yellow to linear peptides of protein M of SARS-CoV Urbani: 0.1
  Binding of serum SARS-yellow to looped/cyclic peptides of protein M of SARS-CoV Urbani: 0.3
[2]
  Rabbit serum linear peptides: 0.5
  Rabbit serum looped peptides: 0.0
[3]
  Binding of Control Serum Blood-Bank to Looped peptides of the protein M of SARS-CoV Urbani: 0.4
  Binding of Control serum Blood-bank to linear peptides of the protein M of SARS-CoV Urbani: 0.6
  Binding of Control serum LUMC to linear peptides of the protein M of SARS-CoV Urbani: 0.3
  Binding of Control serum LUMC to looped peptides of the protein M of SARS-CoV Urbani: 0.5
